Consider five compounds from patent EP3419977B1, “PLATINUM(II) RING-FUSED CHLORINS, METHODS AND USES THEREOF” (Universidade de Coimbra, priority 2016, dated 2017).

pIC50: −log10 of the molar value. Where two headings read alike, the source gives them in different places. A value given as a limit tells only on which side of the number the result lay.

Usually pIC50 stands for −log10 of the IC50, conventionally taken in molar units.

In data set [1] the test system is human melanocytic melanoma cells (A375). Nature of the data set: Photocytotoxicity (photodynamic treatment, MTT assay). In kind it is cell-based. Conditions: 24 h incubation, irradiated 7.5 mW/cm^2 to 10 J, red filter (cut off < 560 nm). As for the experimental part:
In an embodiment the photodynamic activity were as following: For each experiment, A375 cells were plated and kept in the incubator overnight, in order to allow the attachment of the cells. The initial formulation of the sensitizers consisted of a 1 mg/mL solution in DMSO and the desired concentrations were achieved by successive dilutions, being always administered to the cells at 1% DMSO. After sensitizer administration (from 1 nM to 10 µM), cells were incubated for 24 h. Controls were performed on every test. Cells were washed with PBS and new drug-free medium was added. Each plate was irradiated with a fluence rate of 7.5 mW/cm^2 until a total of 10 J was reached, using a light source equipped with a red filter (cut off < 560 nm).

For data set [2] the following is noted: in toluene, used as standard; cited from earlier work.
Another data set deals with A375 cells. Conditions: absence of light.
For data set [3] the following is noted: in water, used as standard for phosphorescence quantum yields; cited from earlier work.

Protocol for A375 cells: In an embodiment the cell culture conditions were as following: The A375 (CRL1619) human melanoma cell lines were purchased from American Type Culture Collection and cultured according to standard procedures using the Dulbecco's Modified Eagle medium (Sigma-Aldrich, Inc; Sigma D-5648) supplemented with 10% heat-inactivated fetal bovine serum (Gibco Invitrogen Life Technologies; Gibco 2010-04), 1% Penicillin-Streptomycin (Gibco Invitrogen Life Technologies; 100 U/mL penicillin and 10 µg/mL streptomycin - Gibco 15140-122) and 100 µM sodium pyruvate (Gibco Invitrogen Life Technologies; Gibco 1360) at 37 °C, in a humidified incubator with 95% air and 5% CO2. For all studies, cells were detached using a solution of 0.25% trypsin-EDTA (Gibco).
In an embodiment for the evaluation of photocytotoxicity a MTT assay was performed. Cell culture plates were washed and incubated with a solution of 3-(4,5-dimethylthiazol-2-yl)-2,5- diphenyltetrazolium bromide (0.5 mg/mL, Sigma) in PBS, pH 7.4, in the dark at 37 °C for 4 hours. To solubilize formazan crystals, a 0.04 M solution of hydrochloric acid in isopropanol was added. Absorbance was measured using a Biotek Synergy HT Plate Reader. Cytotoxicity was expressed as the inhibition percentage of cultures subjected to PDT, correlated with cultures only treated with the vehicle administration of sensitizers. […]

Compound “platinum (II) dimethyl 4,5,6,7-tetrahydropyrazolo[1,5-α]pyridine-2,3-dicarboxylate-fused chlorin [Chlorin 7b]” had a pIC50 in data set [1] of less than 5.30. On to `C1=Cc2nc1c(-c1ccccc1)c1ccc([nH]1)c(-c1ccccc1)c1nc(c(-c3ccccc3)c3ccc([nH]3)c2-c2ccccc2)C=C1` [TPP, meso-tetraphenylporphyrin], for which the φF in data set [2] was 0.11. As to “platinum (II) 2,3-dihydroxymethyl-4,5,6,7-tetrahydropyrazolo[1,5-α]pyridine-fused chlorin [Chlorin 8]”, the negative logarithm of the IC50 (pIC50) in data set [1] was 6.84; in the data set on A375 cells, 4.65.

Photofrin@: the pIC50 in data set [1] was 6.81.

Take `[Ru+2].c1ccc(-c2ccccn2)nc1.c1ccc(-c2ccccn2)nc1.c1ccc(-c2ccccn2)nc1` [tris(2,2'-bipyridyl)ruthenium (II)]: the φF in data set [3] is 0.042.
